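Tested at 5 concentrations; 48 h exposure; 96-well plates; endpoints linearly interpolated, else capped at highest concentration. At the GI50, growth is halved.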 The source made the active and inactive calls. Cut-off read from the data, not from the text of the source: active = GI50 up to about 1.1 µM and inactive = higher. Peptide text beside a SMILES is read from it. * marks the point of attachment. OSu = O=C1CCC(=O)N1O*
Experiments:
Assay in all cases: NCI-60 cell line screen, 48 h
BT-549 = tested on: BT-549
OVCAR-3 = tested on: OVCAR-3
LOX IMVI = tested on: LOX IMVI
SF-539 = tested on: SF-539
SF-295 = tested on: SF-295
A498 = tested on: A498
NCI-H226 = tested on: NCI-H226
HCT-116 = tested on: HCT-116
MDA-MB-435 = tested on: MDA-MB-435
MDA-MB-231 = tested on: MDA-MB-231
NCI-H460 = tested on: NCI-H460
T47D = tested on: T47D
MCF7 = tested on: MCF7
NCI-H522 = tested on: NCI-H522
SNB-19 = tested on: SNB-19
786-0 = tested on: 786-0
HOP-92 = tested on: HOP-92
NCI-H23 = tested on: NCI-H23
HOP-62 = tested on: HOP-62
MDA-N = tested on: MDA-N

SMILES | GI50 (BT-549) | GI50 (OVCAR-3) | GI50 (LOX IMVI) | GI50 (SF-539) | GI50 (SF-295) | GI50 (A498) | GI50 (NCI-H226) | GI50 (HCT-116) | GI50 (MDA-MB-435) | GI50 (MDA-MB-231) | GI50 (NCI-H460) | GI50 (T47D) | GI50 (MCF7) | GI50 (NCI-H522) | GI50 (SNB-19) | GI50 (786-0) | GI50 (HOP-92) | GI50 (NCI-H23) | GI50 (HOP-62) | GI50 (MDA-N)
N#CC(NCCc1ccccc1)c1ccc(C(C#N)NCCc2ccccc2)cc1 (stereo not drawn) | 20.5 µM (inactive) | > 100 µM (inactive) | 45.1 µM (inactive) | > 100 µM (inactive) | > 100 µM (inactive) | > 100 µM (inactive) | > 100 µM (inactive) | 28.8 µM (inactive) | 33.8 µM (inactive) | > 100 µM (inactive) | > 100 µM (inactive) | > 100 µM (inactive) | 55.5 µM (inactive) | > 100 µM (inactive) | 61.2 µM (inactive) | 72.4 µM (inactive) | > 100 µM (inactive) | 30.7 µM (inactive) | – | –
O=C(OCc1ccccc1)c1nc2ccccc2n1S(=O)(=O)c1ccccc1 | > 100 µM (inactive) | > 100 µM (inactive) | > 100 µM (inactive) | > 100 µM (inactive) | > 100 µM (inactive) | > 100 µM (inactive) | > 100 µM (inactive) | > 100 µM (inactive) | > 100 µM (inactive) | > 100 µM (inactive) | > 100 µM (inactive) | 59.2 µM (inactive) | – | – | > 100 µM (inactive) | > 100 µM (inactive) | > 100 µM (inactive) | > 100 µM (inactive) | > 100 µM (inactive) | –
CSC1=C(C(=O)Nc2ccccc2)C(N)=NC1=O | > 100 µM (inactive) | – | > 100 µM (inactive) | > 100 µM (inactive) | – | 56.2 µM (inactive) | > 100 µM (inactive) | > 100 µM (inactive) | > 100 µM (inactive) | > 100 µM (inactive) | > 100 µM (inactive) | 92.7 µM (inactive) | 89.7 µM (inactive) | 11.3 µM (inactive) | > 100 µM (inactive) | > 100 µM (inactive) | – | > 100 µM (inactive) | – | > 100 µM (inactive)
COC(=O)/C=C(/OC)[C@H](C)[C@H](/C=C/c1csc(-c2csc(C(C)C)n2)n1)OC | 4.8 µM (inactive) | 0.35 µM (active) | 0.0838 µM (active) | 8.79 µM (inactive) | 0.0681 µM (active) | 5.97 µM (inactive) | 4.19 µM (inactive) | 0.284 µM (active) | 0.925 µM (active) | 4.69 µM (inactive) | 0.0521 µM (active) | 1.4 µM (inactive) | 0.178 µM (active) | 1.21 µM (inactive) | – | 7.45 µM (inactive) | 6.07 µM (inactive) | 0.569 µM (active) | > 43.3 µM (inactive) | –
O=C1C(/N=N/c2ccc(-c3nc4ccccc4o3)cc2)NC(=S)N1c1ccccc1 (stereo not drawn) | > 100 µM (inactive) | 23.6 µM (inactive) | 35.5 µM (inactive) | > 100 µM (inactive) | > 100 µM (inactive) | – | > 100 µM (inactive) | > 100 µM (inactive) | 60.7 µM (inactive) | > 100 µM (inactive) | 70.3 µM (inactive) | 22.9 µM (inactive) | 33.2 µM (inactive) | 60.4 µM (inactive) | > 100 µM (inactive) | > 100 µM (inactive) | 59.6 µM (inactive) | > 100 µM (inactive) | > 100 µM (inactive) | 32.8 µM (inactive)
O[C@H]1[C@H]2c3cc4c(cc3CN3CCC(=C[C@@H]1O)[C@H]23)OCO4 [LYCORINE] | 1.66 µM (inactive) | 2.47 µM (inactive) | 0.971 µM (active) | 1.8 µM (inactive) | 2.69 µM (inactive) | 2.96 µM (inactive) | 2.76 µM (inactive) | 1.26 µM (inactive) | 2.07 µM (inactive) | 1.65 µM (inactive) | 1.26 µM (inactive) | 2.49 µM (inactive) | 0.201 µM (active) | 1.05 µM (active) | 2.11 µM (inactive) | 3.1 µM (inactive) | – | 2.42 µM (inactive) | 1.78 µM (inactive) | 2.59 µM (inactive)
CC(=O)c1cccc(NC(=O)C(=O)C(c2cnc3ccc([N+](=O)[O-])cc3n2)[N+](=O)[O-])c1 (stereo not drawn) | 53 µM (inactive) | > 100 µM (inactive) | > 100 µM (inactive) | > 100 µM (inactive) | 66.7 µM (inactive) | > 100 µM (inactive) | > 100 µM (inactive) | 58.3 µM (inactive) | > 100 µM (inactive) | > 100 µM (inactive) | > 100 µM (inactive) | > 100 µM (inactive) | > 100 µM (inactive) | – | > 100 µM (inactive) | > 100 µM (inactive) | > 100 µM (inactive) | > 100 µM (inactive) | > 100 µM (inactive) | > 100 µM (inactive)
COc1cc(C2c3cc4c(cc3OC(N3CCOCC3)C2C)OCO4)ccc1O (stereo not drawn) | 10.3 µM (inactive) | 7.62 µM (inactive) | 11.8 µM (inactive) | 11.3 µM (inactive) | 4.31 µM (inactive) | 17.6 µM (inactive) | – | 8.34 µM (inactive) | 2.81 µM (inactive) | – | 12 µM (inactive) | 10.3 µM (inactive) | 5.98 µM (inactive) | 8.15 µM (inactive) | 24.4 µM (inactive) | 18.4 µM (inactive) | 2.84 µM (inactive) | 28.6 µM (inactive) | 11.7 µM (inactive) | 1.76 µM (inactive)
Fc1ccc(-c2sc(-c3cccs3)cc2Cc2cccs2)cc1 | > 100 µM (inactive) | > 100 µM (inactive) | > 100 µM (inactive) | > 100 µM (inactive) | > 100 µM (inactive) | > 100 µM (inactive) | > 100 µM (inactive) | > 100 µM (inactive) | > 100 µM (inactive) | > 100 µM (inactive) | > 100 µM (inactive) | > 100 µM (inactive) | > 100 µM (inactive) | > 100 µM (inactive) | > 100 µM (inactive) | > 100 µM (inactive) | > 100 µM (inactive) | > 100 µM (inactive) | – | –
O=C(Nc1nc(C23CC4CC(CC(C4)C2)C3)cs1)c1cc2c(ccc3ccccc32)oc1=O | > 100 µM (inactive) | > 100 µM (inactive) | > 100 µM (inactive) | > 100 µM (inactive) | > 100 µM (inactive) | > 100 µM (inactive) | > 100 µM (inactive) | > 100 µM (inactive) | > 100 µM (inactive) | > 100 µM (inactive) | > 100 µM (inactive) | – | > 100 µM (inactive) | > 100 µM (inactive) | > 100 µM (inactive) | > 100 µM (inactive) | > 100 µM (inactive) | > 100 µM (inactive) | > 100 µM (inactive) | > 100 µM (inactive)
CCOC(=O)c1csc(C(CSCc2ccc(OC)cc2)N2C(=O)c3ccccc3C2=O)n1 (stereo not drawn) | > 100 µM (inactive) | > 100 µM (inactive) | 37.6 µM (inactive) | > 100 µM (inactive) | > 100 µM (inactive) | > 100 µM (inactive) | > 100 µM (inactive) | 49.1 µM (inactive) | 54.8 µM (inactive) | > 100 µM (inactive) | > 100 µM (inactive) | 69.2 µM (inactive) | 73.5 µM (inactive) | 23.5 µM (inactive) | > 100 µM (inactive) | 88.1 µM (inactive) | > 100 µM (inactive) | > 100 µM (inactive) | > 100 µM (inactive) | –
NCCCCC(NC(=O)C(N)Cc1ccc(O)cc1)C(=O)NC(CCCCN)C(=O)NC(CCCCN)C(=O)ON1C(=O)CCC1=O (stereo not drawn) (H-YKKK-OSu; configuration not given here) | > 100 µM (inactive) | – | – | – | – | > 100 µM (inactive) | > 100 µM (inactive) | > 100 µM (inactive) | – | > 100 µM (inactive) | > 100 µM (inactive) | 49.5 µM (inactive) | > 100 µM (inactive) | – | > 100 µM (inactive) | > 100 µM (inactive) | > 100 µM (inactive) | > 100 µM (inactive) | > 100 µM (inactive) | > 100 µM (inactive)
N#Cc1c(N)nc(-c2ccc(Cl)cc2)c2c1-c1ccccc1S(=O)(=O)CC2 | 27.5 µM (inactive) | > 100 µM (inactive) | > 100 µM (inactive) | – | – | > 100 µM (inactive) | > 100 µM (inactive) | > 100 µM (inactive) | > 100 µM (inactive) | > 100 µM (inactive) | 45.1 µM (inactive) | > 100 µM (inactive) | – | 31 µM (inactive) | 29.1 µM (inactive) | 27.2 µM (inactive) | > 100 µM (inactive) | 66.2 µM (inactive) | 35.7 µM (inactive) | > 100 µM (inactive)
C=CCn1c(=O)c2ccccc2[n+]2c(C)c(C(=O)OCC)sc12 | > 100 µM (inactive) | > 100 µM (inactive) | > 100 µM (inactive) | > 100 µM (inactive) | 42.7 µM (inactive) | – | > 100 µM (inactive) | > 100 µM (inactive) | > 100 µM (inactive) | > 100 µM (inactive) | > 100 µM (inactive) | > 100 µM (inactive) | > 100 µM (inactive) | > 100 µM (inactive) | > 100 µM (inactive) | > 100 µM (inactive) | – | > 100 µM (inactive) | 42.4 µM (inactive) | > 100 µM (inactive)
CNNC1=NS(=O)(=O)c2cc(C#N)c(Cl)cc2S1 | > 10 µM (inactive) | > 10 µM (inactive) | > 10 µM (inactive) | > 10 µM (inactive) | > 10 µM (inactive) | > 10 µM (inactive) | > 10 µM (inactive) | > 10 µM (inactive) | > 10 µM (inactive) | > 10 µM (inactive) | > 10 µM (inactive) | > 10 µM (inactive) | 0.00303 µM (active) | > 10 µM (inactive) | > 10 µM (inactive) | > 10 µM (inactive) | – | > 10 µM (inactive) | > 10 µM (inactive) | > 10 µM (inactive)

Source: ChEMBL document CHEMBL1201862, “PubChem BioAssay data set” (2004)
